Values quoted from earlier work, collected in patent US6068858A, “Methods of making nanocrystalline formulations of human immunodeficiency virus (HIV) protease inhibitors using cellulosic surface stabilizers” (Elan Pharma International Limited, priority 1999, dated 2000).

Tested on: not given
Conditions: as reported in literature

| Structure (SMILES) | oral bioavailability |
| --- | --- |
| CSC[C@H](NC(=O)COc1cccc2cnccc12)C(=O)N[C@@H](Cc1ccccc1)[C@H](O)C(=O)N1CSC[C@H]1C(=O)NC(C)(C)C [KNI-272] | low oral bioavailability |
| N#Cc1ccc(S(=O)(=O)Nc2cccc(C(c3c(O)c4c(oc3=O)CCCCCC4)C3CC3)c2)cc1 (stereo not shown) [U-103,017] | low oral bioavailability |

Same assay, conditions: in vivo, po

| Structure (SMILES) | oral bioavailability |
| --- | --- |
| CC(C)CN(C[C@@H](O)[C@H](Cc1ccccc1)NC(=O)O[C@H]1CCOC1)S(=O)(=O)c1ccc(N)cc1 [VX-478] | low oral bioavailability |
| Cc1c(O)cccc1C(=O)N[C@@H](CSc1ccccc1)[C@H](O)CN1C[C@H]2CCCC[C@H]2C[C@H]1C(=O)NC(C)(C)C [AG1343] | low oral bioavailability |
| CC(C)c1nc(CN(C)C(=O)N[C@H](C(=O)N[C@@H](Cc2ccccc2)C[C@H](O)[C@H](Cc2ccccc2)NC(=O)OCc2cncs2)C(C)C)cs1 [ABT-538] | low oral bioavailability |
| CC(C)(C)NC(=O)[C@@H]1C[C@@H]2CCCC[C@@H]2CN1C[C@@H](O)[C@H](Cc1ccccc1)NC(=O)[C@H](CC(N)=O)NC(=O)c1ccc2ccccc2n1 [saquinavir] | low oral bioavailability |
| CC(C)(C)NC(=O)[C@@H]1CN(Cc2cccnc2)CCN1C[C@@H](O)C[C@@H](Cc1ccccc1)C(=O)N[C@H]1c2ccccc2C[C@H]1O [MK-639] | low oral bioavailability |
| Nc1cccc(CN2C(=O)N(Cc3cccc(N)c3)[C@H](Cc3ccccc3)[C@H](O)[C@@H](O)[C@H]2Cc2ccccc2)c1 [DMP-450] | low oral bioavailability |

Tested on: HIV RT
Conditions: background statement

| Structure (SMILES) | effectiveness in treating HIV infection |
| --- | --- |
| O[C@H](CS)[C@H](O)CS (racemic) [ddT, dithiothreitol] | only modestly effective |
| O=c1[nH]cnc2c1ncn2[C@H]1CC[C@@H](CO)O1 [ddI, didanosine] | only modestly effective |

Same assay, conditions: background statement; interfere with cellular enzymes

| Structure (SMILES) | side effects |
| --- | --- |
| O[C@H](CS)[C@H](O)CS (racemic) [ddT, dithiothreitol] | severe side effects |
| Cc1cn([C@H]2C[C@H](N=[N+]=[N-])[C@@H](CO)O2)c(=O)[nH]c1=O [AZT, azidothymidine] | severe side effects |
| O=c1[nH]cnc2c1ncn2[C@H]1CC[C@@H](CO)O1 [ddI, didanosine] | severe side effects |
